Measurements reported in the NIST ThermoML archive (doi:10.1016/j.jct.2011.08.016).

Assay: xn = mol fraction of the nth substance listed
Details: Liquid, Vibrating tube method

CCCCCCCCCC [decane] + CCCCCCC
Details	mass density [kg/m3]
363.02 K, 16000 kPa, x2 = 0.777	658.24
363.02 K, 17000 kPa, x2 = 0.5219	673.01
363.02 K, 17000 kPa, x2 = 0.777	659.41
363.02 K, 18000 kPa, x2 = 0.5219	674.09
363.02 K, 18000 kPa, x2 = 0.777	660.5
363.02 K, 19000 kPa, x2 = 0.5219	675.09
363.02 K, 19000 kPa, x2 = 0.777	661.57
363.02 K, 20000 kPa, x2 = 0.5219	676.07
363.02 K, 20000 kPa, x2 = 0.777	662.62
363.02 K, 21000 kPa, x2 = 0.5219	677.05
363.02 K, 21000 kPa, x2 = 0.777	663.64
363.02 K, 22000 kPa, x2 = 0.5219	677.98
363.02 K, 22000 kPa, x2 = 0.777	664.64
363.02 K, 23000 kPa, x2 = 0.5219	678.94
363.02 K, 23000 kPa, x2 = 0.777	665.63
363.02 K, 24000 kPa, x2 = 0.5219	679.87
363.02 K, 24000 kPa, x2 = 0.777	666.6
363.02 K, 25000 kPa, x2 = 0.5219	680.76
363.02 K, 25000 kPa, x2 = 0.777	667.53
363.03 K, 1000 kPa, x2 = 0.0531	674.85
363.03 K, 1000 kPa, x2 = 0.952	627.08
363.03 K, 2000 kPa, x2 = 0.0531	676.04
363.03 K, 2000 kPa, x2 = 0.952	628.62
363.03 K, 3000 kPa, x2 = 0.0531	677.23
363.03 K, 3000 kPa, x2 = 0.952	630.14
363.03 K, 4000 kPa, x2 = 0.0531	678.38
363.03 K, 4000 kPa, x2 = 0.952	631.64
363.03 K, 5000 kPa, x2 = 0.0531	679.52
363.03 K, 5000 kPa, x2 = 0.952	633.12
363.03 K, 6000 kPa, x2 = 0.0531	680.65
363.03 K, 6000 kPa, x2 = 0.952	634.56
363.03 K, 7000 kPa, x2 = 0.0531	681.75
363.03 K, 7000 kPa, x2 = 0.952	635.98
363.03 K, 8000 kPa, x2 = 0.0531	682.84
363.03 K, 8000 kPa, x2 = 0.952	637.36
363.03 K, 9000 kPa, x2 = 0.0531	683.92
363.03 K, 9000 kPa, x2 = 0.952	638.71
363.03 K, 10000 kPa, x2 = 0.0531	684.98
363.03 K, 10000 kPa, x2 = 0.952	640.03
363.03 K, 11000 kPa, x2 = 0.0531	686.02
363.03 K, 11000 kPa, x2 = 0.952	641.33
363.03 K, 12000 kPa, x2 = 0.0531	687.05
363.03 K, 12000 kPa, x2 = 0.952	642.61
363.03 K, 13000 kPa, x2 = 0.0531	688.07
363.03 K, 13000 kPa, x2 = 0.952	643.86
363.03 K, 14000 kPa, x2 = 0.0531	689.07
363.03 K, 14000 kPa, x2 = 0.952	645.09
363.03 K, 15000 kPa, x2 = 0.0531	690.05
363.03 K, 15000 kPa, x2 = 0.952	646.3
363.03 K, 16000 kPa, x2 = 0.0531	691.03
363.03 K, 16000 kPa, x2 = 0.952	647.49
363.03 K, 17000 kPa, x2 = 0.0531	691.98
363.03 K, 17000 kPa, x2 = 0.952	648.66
363.03 K, 18000 kPa, x2 = 0.0531	692.93
363.03 K, 18000 kPa, x2 = 0.952	649.8
363.03 K, 19000 kPa, x2 = 0.0531	693.87
363.03 K, 19000 kPa, x2 = 0.952	650.92
363.03 K, 20000 kPa, x2 = 0.0531	694.79
363.03 K, 20000 kPa, x2 = 0.952	652.02
363.03 K, 21000 kPa, x2 = 0.0531	695.7
363.03 K, 21000 kPa, x2 = 0.952	653.1
363.03 K, 22000 kPa, x2 = 0.0531	696.6
363.03 K, 22000 kPa, x2 = 0.952	654.16
363.03 K, 23000 kPa, x2 = 0.0531	697.47
363.03 K, 23000 kPa, x2 = 0.952	655.2
363.03 K, 24000 kPa, x2 = 0.0531	698.37
363.03 K, 24000 kPa, x2 = 0.952	656.21
363.03 K, 25000 kPa, x2 = 0.0531	699.21
363.03 K, 25000 kPa, x2 = 0.952	657.21
363.06 K, 1000 kPa, x2 = 0.2594	666.7
363.06 K, 2000 kPa, x2 = 0.2594	667.89
363.06 K, 3000 kPa, x2 = 0.2594	669.1
363.06 K, 4000 kPa, x2 = 0.2594	670.27
363.06 K, 5000 kPa, x2 = 0.2594	671.44
363.06 K, 6000 kPa, x2 = 0.2594	672.61
363.06 K, 7000 kPa, x2 = 0.2594	673.77
363.06 K, 8000 kPa, x2 = 0.2594	674.91
363.06 K, 9000 kPa, x2 = 0.2594	676.05
363.06 K, 10000 kPa, x2 = 0.2594	677.17
363.06 K, 11000 kPa, x2 = 0.2594	678.26
363.06 K, 12000 kPa, x2 = 0.2594	679.34
363.06 K, 13000 kPa, x2 = 0.2594	680.41
363.06 K, 14000 kPa, x2 = 0.2594	681.46
363.06 K, 15000 kPa, x2 = 0.2594	682.5
363.06 K, 16000 kPa, x2 = 0.2594	683.52
363.06 K, 17000 kPa, x2 = 0.2594	684.53
363.06 K, 18000 kPa, x2 = 0.2594	685.52
363.06 K, 19000 kPa, x2 = 0.2594	686.5
363.06 K, 20000 kPa, x2 = 0.2594	687.43
363.06 K, 21000 kPa, x2 = 0.2594	688.35
363.06 K, 22000 kPa, x2 = 0.2594	689.23
363.06 K, 23000 kPa, x2 = 0.2594	690.14
363.06 K, 24000 kPa, x2 = 0.2594	691.03
363.06 K, 25000 kPa, x2 = 0.2594	691.89
